Measured values from ChEMBL document CHEMBL1143044, “The isolation of secondary metabolites and in vitro potent anti-cancer activity of clerodermic acid from Enicosanthum membranifolium” (Bioorg Med Chem, 2007).
pIC50: −log10 of the molar value. The source made the active and inactive calls. The calls are words filed in the database; no cut-off is given here.

Columns and labels:
Format in all cases: functional, cell-based
HL-60 [1] = assay: Induction of apoptosis in human HL60 cells at 200 uM in presence of 100 uM caspase inhibitor ZVADFMK by Trypan blue exclusion test
HL-60 [2] = assay: Induction of apoptosis in human HL60 cells assessed as nucleosomal DNA fragmentation after 24 hrs
HL-60 [3] = assay: Growth inhibition of human HL60 cells by Trypan blue exclusion test

SMILES: C[C@@H]1CC[C@@]2(C)C(C(=O)O)=CCCC2[C@@]1(C)CCC1=CC(=O)OC1 (stereo partly drawn) [CLERODERMIC ACID]
- Activity (HL-60 [1]): Active
- Activity (HL-60 [2]): Active
- pIC50 (HL-60 [3]): 4.17
